Measurements reported in publication PMC8183095, “Uncovering the chemistry of C–C bond formation in C-nucleoside biosynthesis: crystal structure of a C-glycoside synthase/PRPP complex” (Chemical Communications (Cambridge, England), 2020).
pKd: −log10 of the molar value. Values belong to the compound of their own block, whether it stands above or below them.

Columns and labels:
ForT [1] = target: T1, ForT (Streptomyces kaniharaensis, UniProt A0A5S9CYM0); experiment: LCMS product detection; membrane-inlet mass spectrometry of CO2 production; type: biochemical; set-up: gene cof6; recombinant wild type, expressed in and purified from Escherichia coli; residues 11-171, 180-205, 209-341 (C-terminus) seen in the crystal; dimer in solution; conditions: co-substrate PRPP; Mg2+ apparently needed
T1 sequence (A0A5S9CYM0 1-341): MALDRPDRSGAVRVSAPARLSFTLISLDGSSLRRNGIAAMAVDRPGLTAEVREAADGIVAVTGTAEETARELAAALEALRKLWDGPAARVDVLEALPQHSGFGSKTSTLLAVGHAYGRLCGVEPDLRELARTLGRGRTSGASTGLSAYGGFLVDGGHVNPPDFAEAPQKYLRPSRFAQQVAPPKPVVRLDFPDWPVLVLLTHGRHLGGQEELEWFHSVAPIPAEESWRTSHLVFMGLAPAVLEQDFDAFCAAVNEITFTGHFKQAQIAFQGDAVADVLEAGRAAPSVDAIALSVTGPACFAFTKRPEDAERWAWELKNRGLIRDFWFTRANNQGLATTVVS

[2] = target: ForT (wild type), C-glycoside synthase from Streptomyces kaniharaensis (Streptomyces kaniharaensis); experiment: SEC-MALS; gel filtration and multi-angle light scattering of ForT in solution
ForT [3] = target: T2, ForT (Streptomyces kaniharaensis, UniProt A0A5S9CYM0, G134P); experiment: biochemical
T2 construct: gene cof6

ForT [4] = target: T1, ForT; experiment: biochemical; set-up: gene cof6

T2 sequence (A0A5S9CYM0 entry or part of it G134P): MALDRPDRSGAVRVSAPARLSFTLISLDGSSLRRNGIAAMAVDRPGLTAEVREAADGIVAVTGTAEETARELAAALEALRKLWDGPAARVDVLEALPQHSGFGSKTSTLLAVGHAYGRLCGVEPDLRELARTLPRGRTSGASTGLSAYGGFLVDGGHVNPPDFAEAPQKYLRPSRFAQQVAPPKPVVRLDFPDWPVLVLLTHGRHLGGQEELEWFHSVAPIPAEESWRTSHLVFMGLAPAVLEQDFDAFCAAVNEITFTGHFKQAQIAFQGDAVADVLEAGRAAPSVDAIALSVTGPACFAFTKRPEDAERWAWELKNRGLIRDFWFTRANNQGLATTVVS

Compound: Nc1c(C(=O)O)n[nH]c1C(=O)O [compound 5, 4-amino-1H-pyrazole-3,5-dicarboxylate]
LCMS product detection; membrane-inlet mass spectrometry of CO2 production (ForT [1]): LCMS confirmed formation of the expected product when the enzyme was incubated with PRPP

stoichiometry N [2]: 2
Compound: ForT (wild type), C-glycoside synthase from Streptomyces kaniharaensis (enzyme)

pKd (ForT [3]): < 3.70
pKd (ForT [4]): 5.40
Compound: O=P(O)(O)OC[C@H]1O[C@H](OP(=O)(O)OP(=O)(O)O)[C@H](O)[C@@H]1O [compound 4, PRPP]
